Active and inactive are the calls of the source.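 How the source made its calls: active means compounds lowering cell viability signal with fitted half-maximal concentration at most ten times their highest tested concentration; inconclusive means flat fit with 30 to 70% signal loss, or poor fit; inactive means the rest.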 Where only a bound is given, the exact number is not on record here.

In general, AC50 refers to the concentration giving half of the maximal activity seen.

In this assay the test system is HEK293T viability, CellTiter-Glo ATP luminescence, 48 h. The assay is described as follows: cytotoxicity in HEK293T cells – cell-based, CellTiter-Glo luminescence, cherry-picks, cytotoxicity control for LMP1 NF-kB inhibitor project, dose response (AID 504861). On the technique in general: ATP-based viability assays read luminescence as a measure of living cells.
For the compound `Cc1nc(N)nc(N)c1/C=C/C(C)(C)c1ccc(Cl)cc1`, the concentration at half-maximal activity (AC50) was below 0.011 µM.

As for `Fc1ccc2[nH]c3c(N4CCSCC4)ncnc3c2c1`, the half-maximal activity concentration (AC50) is 9.97 µM.

With `COc1ccc(-c2ccc(NC(=O)c3ccco3)cc2)nn1`, the concentration at half-maximal activity (AC50) is 7.75 µM.

Consider `Cc1cc(=O)[nH]c(NN=Cc2cc(Br)ccc2O)n1`, for which the AC50 was 3.36 µM.

Regarding `COc1cccc(/C=N/NC(=O)c2[nH]nc3c2CCc2ccccc2-3)c1O`, the half-maximal activity concentration (AC50) was 3.21 µM.

`CCC(C)Nc1nc(-c2ccccn2)nc2ccccc12` (centres undefined): the AC50 is 4.04 µM.

In the case of `COc1ccc(C(=O)Nn2c(SCC(=O)NC3CCCCC3)nc3ccccc3c2=O)cc1`, the AC50 was > 26 µM (inactive).

Turning to `CCC(=O)NC(c1cc(Cl)c2cccnc2c1O)C1CC1` (centres undefined), the AC50 was 9.86 µM.

Turning to `Cn1c(/C=C/c2ccccc2)nc2ccccc21`, the concentration at half-maximal activity (AC50) was 9.76 µM.

On to `CCCCC(=O)NC(c1ccc(Cl)cc1Cl)c1ccc2cccnc2c1O` (centres undefined), for which the AC50 was 3.16 µM.

Consider `S=C(NN=Cc1ccccn1)Nc1ccccn1`, for which the concentration at half-maximal activity (AC50) was 23 µM.

For the compound `COc1cccc(N=Nc2ccc(O)c3ncccc23)c1`, the half-maximal activity concentration (AC50) was 2.88 µM.

As for `CCc1nc(SCC(=O)c2ccc3c(c2)OCCO3)c2ccccc2n1`, the AC50 is > 26 µM (inactive).

As for `O=C(N/N=C/c1cccs1)c1n[nH]c2c1CCCC2`, the concentration at half-maximal activity (AC50) is 27 µM.

Regarding `COc1ccc(OCc2cccc(C(=O)NN)c2)cc1`, the AC50 was > 26 µM (inactive).

Take `CC(=O)NC(c1cccc([N+](=O)[O-])c1)c1ccc2cccnc2c1O` (centres undefined): the half-maximal activity concentration (AC50) was 3.66 µM.

Regarding `CCOC(=O)c1c(C)[nH]c(C(=O)N/N=C\c2ccccc2O)c1C`, the AC50 was 4.09 µM.

As to `Oc1ccccc1/C=N/Nc1nccnc1Cl`, the AC50 was > 26 µM (inactive).

On to `COc1cccc(/C=N/Nc2nc3ccccc3[nH]2)c1O`, for which the AC50 was 5.26 µM.

With `CC(=NNC(=S)N1CCCCC1)c1cccc(C)n1`, the AC50 is > 26 µM (inactive).

With `CCc1ccc(Nc2n[n+](-c3ccccc3)c(-c3c(Cl)cccc3Cl)s2)cc1`, the AC50 is 11.2 µM.

As to `O=C1C(=C(c2ccccc2)N2CCOCC2)Cc2ccccc21`, the concentration at half-maximal activity (AC50) is 1.38 µM.

Turning to `O=C1c2ccccc2C(Nc2ccc(Cl)cc2)N1CCN1CCOCC1` (centres undefined), the AC50 is > 26 µM (inactive).

`CC(=NNC(=S)Nc1ccc(C)cc1)c1ccccn1`: the concentration at half-maximal activity (AC50) was 0.624 µM.

For `CCCCCN=Cc1c(C)[nH]n(-c2nc3ccccc3s2)c1=O`, the concentration at half-maximal activity (AC50) was 1.33 µM.

Consider `Cc1ccc2nc(-c3ccccn3)[nH]c2c1`, for which the concentration at half-maximal activity (AC50) is 21.6 µM.

Consider `CCCc1sc(N/N=C/c2ccccn2)nc1-c1ccc(Br)cc1`, for which the AC50 was 21.4 µM.

Take `Brc1ccc(-c2nc(-c3ccccn3)no2)o1`: the AC50 is > 26 µM (inactive).

In the case of `CCN(CC)c1ccc(/C=N/Nc2nc(C)cc(=O)[nH]2)c(O)c1`, the AC50 was 1.41 µM.

For the compound `COc1cc([C@@H]2c3cc4c(cc3[C@@H](O[C@@H]3O[C@@H]5CO[C@@H](C)O[C@H]5[C@H](O)[C@H]3O)[C@H]3COC(=O)[C@H]23)OCO4)cc(OC)c1O`, the concentration at half-maximal activity (AC50) is 26.5 µM.

`CC(=O)OC1CCC2(C)C(CCC3C4CC=C(C(C)=O)C4(C)OC(=O)CC32)C1` (centres undefined): the half-maximal activity concentration (AC50) was 4.45 µM.

For the compound `CCN1CCN(Cc2ccc(NC(=O)c3ccc(C)c(/C=C/c4cnc(Nc5cc(N6CCNCC6)nc(C)n5)cn4)c3)cc2C(F)(F)F)CC1`, the AC50 was 14.3 µM.

As for `O=C(CF)N(O)c1ccc(C=Cc2ccccc2)cc1`, the AC50 was > 26 µM (inactive).

As to `CC(=O)NC(c1ccc(Cl)cc1Cl)c1ccc2cccnc2c1O` (centres undefined), the concentration at half-maximal activity (AC50) was 1.63 µM.

As for `Clc1ccc(SCc2cc(N3CCOCC3)nc(-c3ccccn3)n2)cc1`, the AC50 is 14.9 µM.

Regarding `Cn1nnnc1N=N/C(=N/Nc1ccccc1)c1ccccc1`, the AC50 was 1.23 µM.

Turning to `CCN(CC)c1ccc(/C=N/NC(=O)c2c(Cl)cnn2C)c(O)c1`, the AC50 is 2.81 µM.

For `CCN1CCN(Cc2ccc(NC(=O)c3ccc(C)c(NC(=O)c4nccnc4N)c3)cc2C(F)(F)F)CC1`, the AC50 was 23.6 µM.

Take `Cc1ccc(CSc2nc3ccncc3[nH]2)cc1`: the AC50 is 20.9 µM.

`CCN(CC)c1ccc(/C=N/Nc2nc3ccccc3[nH]2)c(O)c1`: the concentration at half-maximal activity (AC50) is 4.51 µM.

Turning to `COc1cccc(/C=N/Nc2ncnc(Cl)c2N)c1O`, the AC50 was 3.23 µM.

With `CCNC(=S)NNC(=O)c1cc(-c2ccc(OCC)cc2)nc2ccccc12`, the AC50 was 23 µM.

`COc1ccc(-c2nc(-c3cccs3)no2)cc1`: the AC50 was > 26 µM (inactive).

Regarding `O=C(N/N=C/c1ccc(O)cc1O)c1ccc(CN2C(=O)c3cccc4cccc2c34)cc1`, the half-maximal activity concentration (AC50) was 9.41 µM.

`COc1ccccc1NC(=O)c1c(Nc2ccccc2C)sc(C(=O)Nc2cccc(Cl)c2)c1N`: the half-maximal activity concentration (AC50) is 4.52 µM.

Consider `COc1ccc(O)c(/C=N/Nc2nc(Nc3ccccc3)nc(-n3nc(C)cc3C)n2)c1`, for which the AC50 was 7.55 µM.

For the compound `Oc1ccc(C=NNC(=S)Nc2ccccc2)nc1`, the concentration at half-maximal activity (AC50) was 4.96 µM.

Turning to `COc1cc(C=C2CCCC(=Cc3ccc(OCC4CO4)c(OC)c3)C2=O)ccc1OCC1CO1` (centres undefined), the half-maximal activity concentration (AC50) was 24.3 µM.

As to `CCCc1nc2ccc(Br)cc2c(=O)n1-c1ccc([N+](=O)[O-])c(C(F)(F)F)c1`, the half-maximal activity concentration (AC50) was 4.2 µM.

Regarding `O=C(NC1CCCCCCC1)c1cc(COc2ccc3ncccc3c2)on1`, the concentration at half-maximal activity (AC50) was 1.3 µM.

Turning to `COc1ccccc1[C@]1(C)ON(c2ccccc2C(F)(F)F)C1=O`, the AC50 was 26.4 µM.

Regarding `CC(C)C(=O)NC(c1cccc([N+](=O)[O-])c1)c1ccc2cccnc2c1O` (centres undefined), the AC50 is 4.33 µM.

As for `CC(=NNC(=S)N1CCN(c2ccccn2)CC1)c1nccs1`, the concentration at half-maximal activity (AC50) was 3.52 µM.

As to `CC(=NNc1nc2ccccc2o1)c1ncccn1`, the half-maximal activity concentration (AC50) was 16 µM.

As to `O=C1c2cccc3c([N+](=O)[O-])ccc(c23)C(=O)N1c1ccccn1`, the concentration at half-maximal activity (AC50) is 4.11 µM.

Regarding `CCOC(=O)c1cn2nc(N3CCCCC3)ccc2n1`, the AC50 is > 26 µM (inactive).

With `CC(=NNC(=S)Nc1ccccc1Cl)c1ccccn1`, the AC50 was 0.922 µM.

Turning to `NC(=S)NN=Cc1nccc2c(C(F)(F)C(F)(F)C(F)(F)F)cccc12`, the AC50 was 1.52 µM.

Turning to `Oc1ccc2ccccc2c1/C=N/Nc1nnc(-c2ncc[nH]2)c2ccccc12`, the half-maximal activity concentration (AC50) is 2.32 µM.

Take `COc1ccc(C(=O)NC2CCCc3c2cnn3-c2cccc(C)c2C)c(OC)n1` (centres undefined): the AC50 is 24.1 µM.

`c1ccc(C2=NNC(=NC3CC3)SC2)cc1`: the concentration at half-maximal activity (AC50) was 12.1 µM.

For `C(=Cc1cnc2ccccc2n1)c1ccc2c(c1)OCO2`, the AC50 was 1.74 µM.

With `O=C(/C=C/c1ccco1)Oc1cc(Br)cc(/C=N/NC(=O)c2ccccc2O)c1`, the concentration at half-maximal activity (AC50) was 3.47 µM.

With `Cc1ccc(C(=O)/C=C/C(=O)c2ccc(C)cc2)cc1`, the AC50 is 7.08 µM.

`C/C(=N/NC(=O)c1ccc(C(C)(C)C)cc1)c1ccccn1`: the AC50 was 3.38 µM.

As to `CCOc1cccc(/C=N/Nc2ccc(S(=O)(=O)N(CC)CC)cn2)c1O`, the half-maximal activity concentration (AC50) is 1.69 µM.

In the case of `C#Cc1cc(N2CCN(C(=O)c3ccoc3)CC2)n2nc(-c3cccc(Cl)c3)cc2n1`, the concentration at half-maximal activity (AC50) was 5.11 µM.

With `CCCC(=O)NC(c1ccc(C)cc1)c1ccc2cccnc2c1O` (centres undefined), the half-maximal activity concentration (AC50) was 4.45 µM.

Take `CCN(CC)c1ccc(/C=N/NC(=O)c2cnccn2)c(O)c1`: the concentration at half-maximal activity (AC50) was 3.21 µM.

Consider `CCN1CCN(Cc2ccc(NC(=O)c3ccc(C)c(NC(=O)c4cc(-c5ccc(Br)cc5)n[nH]4)c3)cc2C(F)(F)F)CC1`, for which the AC50 is 15.6 µM.

As to `COc1ccc(C=C2CS(=O)(=O)CC(=Cc3ccc(OC)cc3)C2=O)cc1`, the concentration at half-maximal activity (AC50) is 11.8 µM.

Regarding `COc1ccc(N/N=C/c2c(C(=O)O)ccc3ccccc23)cc1`, the AC50 is 4.11 µM.

Consider `CCN1C(=O)[C@@H]2[C@@H](c3ccc(-c4ccc(Cl)c(Cl)c4)cc3)N3CCC[C@@]3(C(=O)OC)[C@@H]2C1=O`, for which the AC50 is > 26 µM (inactive).

As to `COc1ccc(O)c(/C=N/NC(=O)c2ccc(OCc3cccc(Br)c3)cc2)c1`, the AC50 is 4.45 µM.

With `COc1ccc(Cc2nnc(N/N=C/c3ccc(O)cc3)[nH]c2=O)cc1OC`, the concentration at half-maximal activity (AC50) was 3.56 µM.

On to `C(=N\Nc1nc2ccccc2[nH]1)/c1cccc2cccnc12`, for which the AC50 was 3.24 µM.

As for `CSc1ccc2c(c1)C(N1CCN(C)CC1)Cc1ccccc1S2` (centres undefined), the half-maximal activity concentration (AC50) was 15.4 µM.

For `CCCCC(=O)NC(c1cccc([N+](=O)[O-])c1)c1ccc2cccnc2c1O` (centres undefined), the AC50 is 3.93 µM.

In the case of `NC(=S)NN=Cc1nccc2c(C(F)(F)F)cccc12`, the AC50 is 5.67 µM.

These data come from PubChem BioAssay AID504861 (Broad Institute, 2011).
